Data reported in US20180312493A1, “Antibiotic Compounds, Pharmaceutical Formulations Thereof And Methods And Uses Therefor” (Simon Fraser University, priority 2015, published 2018).
In brackets after ≈: the same amount, converted by molar mass. Where two headings read alike, the source gives them in different places.

Experiments:
[1] = biological target: T1, MRSA Pyk (Staphylococcus aureus, UniProt Q6GG09); test: MRSA pyruvate kinase (PK) activity, continuous LDH-coupled assay; type: biochemical, methicillin resistant S. aureus (MRSA252)
T1 construct: made in house; host or cells: E. coli BL-21 (DE3)
T1 sequence (Q6GG09 whole entry): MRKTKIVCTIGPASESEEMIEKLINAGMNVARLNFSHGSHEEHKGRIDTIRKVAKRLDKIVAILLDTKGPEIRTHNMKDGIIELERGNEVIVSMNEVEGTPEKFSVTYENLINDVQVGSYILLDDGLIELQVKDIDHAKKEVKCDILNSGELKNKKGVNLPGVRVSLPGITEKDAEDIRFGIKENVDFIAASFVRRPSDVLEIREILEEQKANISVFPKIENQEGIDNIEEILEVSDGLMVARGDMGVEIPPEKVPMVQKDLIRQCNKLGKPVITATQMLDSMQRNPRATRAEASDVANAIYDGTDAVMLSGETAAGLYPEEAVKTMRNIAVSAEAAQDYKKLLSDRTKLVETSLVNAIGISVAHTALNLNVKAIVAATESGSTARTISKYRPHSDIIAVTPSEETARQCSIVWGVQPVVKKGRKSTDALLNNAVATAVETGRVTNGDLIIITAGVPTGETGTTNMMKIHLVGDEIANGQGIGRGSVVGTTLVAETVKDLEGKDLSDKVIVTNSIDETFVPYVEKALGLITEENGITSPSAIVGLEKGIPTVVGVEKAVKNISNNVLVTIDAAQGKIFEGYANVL
Procedure, shortened: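 His-tagged MRSA PK (strain Sanger 252) and human PK isoforms expressed in E. coli BL-21 (DE3) and Ni-NTA purified, used at 15 nM in an LDH-coupled assay following NADH oxidation at 340 nm, 30° C, up to 5 min, ≤1% DMSO. IC50 from four-parameter variable-slope fit; Ki with PEP 2-20 mM, ADP fixed 2 mM, inhibitor 0-400 nM.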

[2] = system: K. pneumoniae (C238); test: In vitro susceptibility, broth microdilution (MIC); type: cell-based; conditions: Klebsiella pneumoniae, read-out: Antimicrobial activity (MIC) K. pneumoniae
Procedure, shortened: (§1)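 CLSI 2-fold serial broth microdilution; K. pneumoniae C238 grown in L-broth, S. aureus ATCC 29213 in Mueller Hinton broth, plates incubated 18–24 h at 37 °C. MIC taken as lowest concentration giving complete growth inhibition by OD600 versus compound-free wells, background-subtracted.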

[3] = system: S. aureus (ATCC29213); test: In vitro susceptibility, broth microdilution (MIC); type: cell-based; conditions: Staphylococcus aureus; S. aureus ATCC29213; 18-24 h, 37 C; read-out: Antimicrobial activity (MIC) S. aureus ATCC29213
Procedure, shortened: as §1

[4] = system: MRSA MW2 (USA400); test: In vitro susceptibility, broth microdilution (MIC); type: cell-based, methicillin resistant S. aureus; conditions: Staphylococcus aureus; MRSA MW2 (USA400); read-out: Antimicrobial activity (MIC) MSRA USA400
Procedure, shortened: (§2)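 MIC determined by CLSI 2-fold broth microdilution in cation-adjusted Mueller–Hinton broth at ~2.5×10^5 CFU/ml, final compound 0.031–64 μg/ml, 18–24 h at 37 °C. MIC is the lowest concentration giving complete growth inhibition by background-corrected OD600 versus compound-free wells; duplicate or triplicate wells, replicated at least twice.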

[5] = system: VRE#2 (2010A); test: In vitro susceptibility, broth microdilution (MIC); type: cell-based, vancomycin resistant Enterococci; conditions: VRE#2 (2010A); read-out: Antimicrobial activity (MIC) VRE#2
Procedure, shortened: as §2

[6] = system: A. baumannii (ATCC 17978); test: In vitro susceptibility, broth microdilution (MIC); type: cell-based; conditions: Acinetobacter baumannii, ATCC17978; A. baumannii ATCC 17978 (values marked *); read-out: Antimicrobial activity (MIC) A. baumannii
Procedure, shortened: as §2

[7] = system: MRSA (ATCC BAA-1762); test: In vitro susceptibility, broth microdilution (MIC); type: cell-based, methicillin resistant S. aureus; conditions: Staphylococcus aureus; MRSA ATCC BAA-1762; read-out: Antimicrobial activity (MIC) MRSA ATCC BAA1762
Procedure, shortened: as §2

[8] = system: A. baumannii (ATCC 19606); test: In vitro susceptibility, broth microdilution (MIC); type: cell-based; conditions: Acinetobacter baumannii, ATCC19606; A. baumannii ATCC 19606 (values without asterisk); read-out: Antimicrobial activity (MIC) A. baumannii
Procedure, shortened: as §2

| Structure (SMILES) | IC50 [1] | MIC ([2]; K. pneumoniae (C238)) | MIC [3] | MIC [4] | MIC [5] | MIC [6] | MIC [7] | MIC [8] | MIC [2] |
| --- | --- | --- | --- | --- | --- | --- | --- | --- | --- |
| CC(C)c1nc2c(cc1-c1ccc(Cl)cc1)[nH]c1cc(Br)ccc12 [Compound 114, 7-bromo-3-(4-chlorophenyl)-2-isopropyl-5H-pyrido[3,2-b]indole] | 100 to 1000 nM | 8 µg/mL (≈ 20 µM) | 32 µg/mL (≈ 80.1 µM) | 8 µg/mL (≈ 20 µM) | 4 µg/mL (≈ 10 µM) |  |  |  |  |
| O=S(=O)(Nc1nc2cc(Br)ccc2s1)c1ccc(Cl)cc1 [Compound 101, N-(5-bromobenzo[d]thiazol-2-yl)-4-chlorobenzenesulfonamide] |  | 32 µg/mL (≈ 79.3 µM) | 8 µg/mL (≈ 19.8 µM) | > 64 µg/mL |  |  |  |  |  |
| Clc1ccc(-c2cc3[nH]c4cc(Br)ccc4c3nc2-c2ccccc2)cc1 [Compound 112, 7-bromo-3-(4-chlorophenyl)-2-phenyl-5H-pyrido[3,2-b]indole] | 100 to 1000 nM | > 64 µg/mL | 32 µg/mL (≈ 73.8 µM) |  | > 64 µg/mL | > 64 µg/mL |  |  |  |
| O=C(O)CCNC(=O)c1c(-c2cc3cc(Cl)ccc3[nH]2)[nH]c2cc(Br)ccc12 [Compound 205, 3-(6-Bromo-5′-chloro-1H,1′H-[2,2′-biindole]-3-carboxamido)propanoic Acid] | < 100 nM |  | 32 µg/mL (≈ 69.5 µM) | 32 µg/mL (≈ 69.5 µM) |  | > 64 µg/mL | 64 µg/mL (≈ 139 µM) |  |  |
| COC(=O)C(=O)c1c(/C=C/c2ccc(Cl)cc2)[nH]c2cc(Br)ccc12 [Compound 86, (E)-Methyl 2-(6-bromo-2-(4-chlorostyryl)-1H-indol-3-yl)-2-oxoacetate] | < 100 nM | > 64 µg/mL | 64 µg/mL (≈ 153 µM) | 64 µg/mL (≈ 153 µM) | 64 µg/mL (≈ 153 µM) |  |  |  |  |
| CN(C)CCNC(=O)CCCC(=O)c1c(-c2cc3cc(Cl)ccc3[nH]2)[nH]c2cc(Br)ccc12 [Compound 107, 5-(6-bromo-5′-chloro-1H,1′H-[2,2′-biindol]-3-yl)-N-(2-(dimethylamino)ethyl)-5-oxopentanamide] | < 100 nM | 4 µg/mL (≈ 7.55 µM) | 4 µg/mL (≈ 7.55 µM) | 4 µg/mL (≈ 7.55 µM) | 4 µg/mL (≈ 7.55 µM) |  |  |  |  |
| CN(C)CCOc1cc(/C=C/c2cc3ccc(Br)cc3[nH]2)ccc1Cl [Compound 12, (E)-2-(5-(2-(6-bromo-1H-indol-2-yl)vinyl)-2-chlorophenoxy)-N,N-dimethylethanamine] | 100 to 1000 nM | 4 µg/mL (≈ 9.53 µM) | 4 µg/mL (≈ 9.53 µM) | 4 µg/mL (≈ 9.53 µM) |  |  |  | 16 µg/mL (≈ 38.1 µM) |  |
| CC(=O)Nc1c(CCc2ccc(Cl)cc2)[nH]c2cc(Br)ccc12 [Compound 96, N-(6-Bromo-2-(4-chlorophenethyl)-1H-indol-3-yl)acetamide] | > 1000 nM | > 64 µg/mL | 64 µg/mL (≈ 163 µM) | > 64 µg/mL | > 64 µg/mL |  |  |  |  |
| CN1CCN(CCNC(=O)CCCC(=O)c2c(-c3cc4cc(Cl)ccc4[nH]3)[nH]c3cc(Br)ccc23)CC1 [Compound 106, 5-(6-bromo-5′-chloro-1H,1′H-[2,2′-biindol]-3-yl)-N-(2-(4-methylpiperazin-1-yl)ethyl)-5-oxopentanamide] | < 100 nM | 8 µg/mL (≈ 13.7 µM) | 8 µg/mL (≈ 13.7 µM) | 8 µg/mL (≈ 13.7 µM) | 8 µg/mL (≈ 13.7 µM) |  |  | > 64 µg/mL |  |
| CC(=O)Nc1c(/C=C/c2ccc(Cl)cc2)[nH]c2cc(Br)ccc12 [Compound 94, (E)-N-(6-bromo-2-(4-chlorostyryl)-1H-indol-3-yl)acetamide] | 100 to 1000 nM | > 64 µg/mL | 32 µg/mL (≈ 82.1 µM) | > 64 µg/mL | > 64 µg/mL |  |  |  |  |
| O=C(NCCC1CCC(O)CC1)c1c(/C=C/c2ccc(Cl)cc2)[nH]c2cc(Br)ccc12 (centres unmarked) [Compound 41, (E)-6-Bromo-2-(4-chlorostyryl)-N-(2-(4-hydroxycyclohexyl)ethyl)-1H-indole-3-carboxamide] | < 100 nM | > 64 µg/mL | > 64 µg/mL | > 64 µg/mL | > 64 µg/mL |  |  |  |  |
| CN1CCN(CCCNC(=O)c2c(/C=C/c3ccc(Cl)cc3)[nH]c3cc(Br)ccc23)CC1 [Compound 43, (E)-6-Bromo-2-(4-chlorostyryl)-N-(3-(4-methylpiperazin-1-yl)propyl)-1 H-indole-3-carboxamide] | < 100 nM | 32 µg/mL (≈ 62 µM) | 32 µg/mL (≈ 62 µM) | 32 µg/mL (≈ 62 µM) | 16 µg/mL (≈ 31 µM) |  |  |  |  |
| CN1CCN(CCCCNC(=O)c2c(/C=C/c3ccc(Cl)cc3)[nH]c3cc(Br)ccc23)CC1 [Compound 44, (E)-6-Bromo-2-(4-chlorostyryl)-N-(4-(4-methylpiperazin-1-yl)butyl)-1 H-indole-3-carboxamide] | 100 to 1000 nM | 32 µg/mL (≈ 60.4 µM) | 32 µg/mL (≈ 60.4 µM) | 32 µg/mL (≈ 60.4 µM) | 16 µg/mL (≈ 30.2 µM) |  |  |  |  |
| Clc1cc2nc(-c3cc4ccc(Br)cc4[nH]3)[nH]c2cc1Cl [Compound 207, 2-(6-Bromo-1H-indol-2-yl)-5,6-dichloro-1H-benzo[d]imidazole] | < 100 nM | 16 µg/mL (≈ 42 µM) | 0.5 µg/mL (≈ 1.31 µM) | 1 µg/mL (≈ 2.62 µM) | 32 µg/mL (≈ 84 µM) |  |  | > 64 µg/mL |  |
| CNC(=O)C(=O)c1c(/C=C/c2ccc(Cl)cc2)[nH]c2cc(Br)ccc12 [Compound 87, (E)-2-(6-bromo-2-(4-chlorostyryl)-1H-indol-3-yl)-N-methyl-2-oxoacetamide] | < 100 nM | > 64 µg/mL | > 64 µg/mL | > 64 µg/mL | > 64 µg/mL |  |  |  |  |
| CN1CCN(CCNC(=O)c2c(-c3cc4cc(Cl)ccc4[nH]3)[nH]c3cc(Br)ccc23)CC1 [Compound 72, 6-Bromo-5′-chloro-N-(2-(4-methylpiperazin-1-yl)ethyl)-1H,1′H-[2,2′-biindole]-3-carboxamide] | < 100 nM | 8 µg/mL (≈ 15.5 µM) | 8 µg/mL (≈ 15.5 µM) |  | 8 µg/mL (≈ 15.5 µM) | > 64 µg/mL |  |  |  |
| Oc1cc(/C=C/c2cc3ccc(Br)cc3[nH]2)ccc1Cl [Compound 11, (E)-5-(2-(6-bromo-1H-indol-2-yl)vinyl)-2-chlorophenol] |  | 4 µg/mL (≈ 11.5 µM) | 2 µg/mL (≈ 5.74 µM) | 2 µg/mL (≈ 5.74 µM) |  | > 64 µg/mL |  |  |  |
| CN(C)CCNC(=O)c1c(NC(=O)c2ccc(Cl)cc2)[nH]c2cc(Br)ccc12 [Compound 84, 6-Bromo-2-(4-chlorobenzamido)-N-(2-(dimethylamino)ethyl)-1H-indole-3-carboxamide] |  | 16 µg/mL (≈ 34.5 µM) | 64 µg/mL (≈ 138 µM) | > 64 µg/mL |  |  |  |  |  |
| O=C(O)CCCC(=O)c1c(-c2cc3cc(Cl)ccc3[nH]2)[nH]c2cc(-c3cc4cc(Cl)ccc4[nH]3)ccc12 [Compound 108, 5-(5,5″-dichloro-1H,1′H,1″H-[2,2′:6′,2″-terindol]-3′-yl)-5-oxopentanoic Acid] | > 1000 nM | 2 µg/mL (≈ 3.77 µM) | 1 µg/mL (≈ 1.89 µM) | 2 µg/mL (≈ 3.77 µM) | 2 µg/mL (≈ 3.77 µM) |  |  |  |  |
| CN(C)CCc1c(-c2cc3cc(Cl)ccc3[nH]2)[nH]c2cc(Br)ccc12 [Compound 77, 2-(6-Bromo-5′-chloro-1H,1′H-[2,2′-biindol]-3-yl)-N,N-dimethylethan-1-amine] | < 100 nM |  | 4 µg/mL (≈ 9.6 µM) | 4 µg/mL (≈ 9.6 µM) |  |  |  |  | 4 µg/mL (≈ 9.6 µM) |
| O=C(NCCC[n+]1ccc2ccccc2c1)c1c(-c2cc3cc(Cl)ccc3[nH]2)[nH]c2cc(Br)ccc12 [Compound 146, 2-(3-(6-bromo-5′-chloro-1H,1′H-[2,2′-biindole]-3-carboxamido)propyl)isoquinolin-2-ium] | < 100 nM |  | 32 µg/mL |  | 64 µg/mL | > 64 µg/mL | 32 µg/mL |  |  |
| O=C(CO)Nc1c(/C=C/c2ccc(Cl)cc2)[nH]c2cc(Br)ccc12 [Compound 95, (E)-N-(6-bromo-2-(4-chlorostyryl)-1H-indol-3-yl)-2-hydroxyacetamide] | 100 to 1000 nM | 64 µg/mL (≈ 158 µM) | 32 µg/mL (≈ 78.9 µM) | 64 µg/mL (≈ 158 µM) | 64 µg/mL (≈ 158 µM) |  |  |  |  |
| O=C(Nc1c(/C=C/c2ccc(Cl)cc2)[nH]c2cc(Br)ccc12)C(F)(F)F [Compound 93, (E)-N-(6-bromo-2-(4-chlorostyryl)-1H-indol-3-yl)-2,2,2-trifluoroacetamide] | < 100 nM |  | 32 µg/mL (≈ 72.1 µM) | > 64 µg/mL | 64 µg/mL (≈ 144 µM) |  |  |  | > 64 µg/mL |
| C[N+](C)(C)CCCNC(=O)c1c(-c2cc3cc(Cl)ccc3[nH]2)[nH]c2cc(Br)ccc12 [Compound 147, 3-(6-bromo-5′-chloro-1H,1′H-[2,2′-biindole]-3-carboxamido)-N,N,N-trimethylpropan-1-aminium] | < 100 nM |  | 16 µg/mL |  | 16 µg/mL | > 64 µg/mL | 16 µg/mL |  |  |
